{"source": "paper PMC10620772", "about": "“Design, synthesis, and biological evaluation of new pyrimidine-5-carbonitrile derivatives as novel anti-cancer, dual EGFR^WT/COX-2 inhibitors with docking studies” (RSC Advances, 2023)", "key": {"[1]": {"test_system": "CNS cancer subpanel", "assay": "NCI60 five-dose, subpanel IV", "format": "cell-based, human", "conditions": "for GI50: Homo sapiens, read-out: MG-MID (GI50); for GI50 / MG-MID (TGI): subpanel IV; for Selectivity index (GI50) / Selectivity index (TGI): full panel MG-MID / subpanel IV", "excerpt": "(§1) (2) The molar concentration of the compound responsible for total growth inhibition, also known as total growth inhibition (TGI).\n(§2) Regarding subpanel selectivity toward certain cancer type, the method of determining a compound's selectivity index is to divide the full panel MG-MID (μM) value by each single subpanel. Values above six indicate high selectivity against the subpanel; moderate selectivity is denoted by values between three and six. Conversely, compounds are termed nonselective if their selectivity is less than three.[30,37]"}, "[2]": {"test_system": "colon cancer subpanel", "assay": "NCI60 five-dose, subpanel III", "format": "cell-based, human", "conditions": "for GI50: Homo sapiens, read-out: MG-MID (GI50); for GI50 / MG-MID (TGI): subpanel III; for Selectivity index (GI50) / Selectivity index (TGI): full panel MG-MID / subpanel III", "excerpt": "as §1, §2"}, "[3]": {"test_system": "non-small cell lung cancer subpanel", "assay": "NCI60 five-dose, subpanel II", "format": "cell-based, human", "conditions": "for GI50: Homo sapiens, read-out: MG-MID (GI50); for GI50 / MG-MID (TGI): subpanel II; for Selectivity index (GI50) / Selectivity index (TGI): full panel MG-MID / subpanel II", "excerpt": "as §1, §2"}, "[4]": {"biological_target": "T1, COX-2 (Homo sapiens, UniProt P35354)", "T1 construct": "purchased Biovision K547", "T1 sequence (P35354 18-604)": "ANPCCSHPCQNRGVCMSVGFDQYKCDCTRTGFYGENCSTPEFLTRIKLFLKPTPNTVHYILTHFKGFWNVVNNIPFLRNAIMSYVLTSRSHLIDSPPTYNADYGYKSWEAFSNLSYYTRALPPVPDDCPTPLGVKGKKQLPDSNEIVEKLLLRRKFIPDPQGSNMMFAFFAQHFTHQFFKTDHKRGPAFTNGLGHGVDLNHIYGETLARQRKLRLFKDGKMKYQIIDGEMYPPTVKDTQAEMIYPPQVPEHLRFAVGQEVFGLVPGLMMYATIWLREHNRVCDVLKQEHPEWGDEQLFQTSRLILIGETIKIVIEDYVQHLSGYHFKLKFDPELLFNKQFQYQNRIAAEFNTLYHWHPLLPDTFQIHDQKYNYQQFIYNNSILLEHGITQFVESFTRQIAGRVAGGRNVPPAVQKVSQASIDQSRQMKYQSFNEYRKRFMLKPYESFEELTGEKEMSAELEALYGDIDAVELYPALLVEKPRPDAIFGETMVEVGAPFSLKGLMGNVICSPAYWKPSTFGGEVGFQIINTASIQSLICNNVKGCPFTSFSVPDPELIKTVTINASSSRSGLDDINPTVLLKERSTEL", "assay": "COX-2 inhibitor screening kit (Biovision)", "format": "biochemical", "conditions": "for IC50: means ± SD of three experiments, read-out: COX2 IC50", "procedure": "The inhibitory activity of novel 4e & 4f against COX-1/COX-2 was evaluated by using Biovision COX-1/COX-2 Inhibitor Screening Kit (Catalog #: K548) and (Catalog #: K547), respectively."}}, "data": [{"smiles": "N#Cc1c(-c2ccc(F)cc2)nc(SCc2ccc(F)cc2)nc1N1CCNCC1", "note": "[4f, 2-((4-Fluorobenzyl)thio)-4-(4-fluorophenyl)-6-(piperazin-1-yl) pyrimidine-5-carbonitrile]", "values": [{"measurement": "GI50", "setting": "[1]", "value": 14.3, "unit": "µM"}, {"measurement": "Selectivity index (GI50)", "setting": "[1]", "value": 0.94}, {"measurement": "Selectivity index (TGI)", "setting": "[1]", "value": 0.91}, {"measurement": "MG-MID (TGI)", "setting": "[1]", "value": 28.98, "unit": "µM"}, {"measurement": "GI50", "setting": "[2]", "value": 7, "unit": "µM"}, {"measurement": "Selectivity index (GI50)", "setting": "[2]", "value": 1.92}, {"measurement": "Selectivity index (TGI)", "setting": "[2]", "value": 1.54}, {"measurement": "MG-MID (TGI)", "setting": "[2]", "value": 17.15, "unit": "µM"}, {"measurement": "GI50", "setting": "[3]", "value": 13.7, "unit": "µM"}, {"measurement": "Selectivity index (GI50)", "setting": "[3]", "value": 0.98}, {"measurement": "Selectivity index (TGI)", "setting": "[3]", "value": 0.91}, {"measurement": "MG-MID (TGI)", "setting": "[3]", "value": 28.83, "unit": "µM"}, {"measurement": "SI (COX-2 over COX-1)", "setting": "[4]", "value": 6.01}, {"measurement": "IC50", "setting": "[4]", "value": 5.26, "unit": "µM"}]}, {"smiles": "N#Cc1c(-c2ccc(F)cc2)nc(SCc2ccccc2)nc1N1CCNCC1", "note": "[4e, 2-(Benzylthio)-4-(4-fluorophenyl)-6-(piperazin-1-yl) pyrimidine-5-carbonitrile]", "values": [{"measurement": "GI50", "setting": "[1]", "value": 12.6, "unit": "µM"}, {"measurement": "Selectivity index (GI50)", "setting": "[1]", "value": 0.85}, {"measurement": "Selectivity index (TGI)", "setting": "[1]", "value": 0.88}, {"measurement": "MG-MID (TGI)", "setting": "[1]", "value": 26.80, "unit": "µM"}, {"measurement": "GI50", "setting": "[2]", "value": 5.1, "unit": "µM"}, {"measurement": "Selectivity index (GI50)", "setting": "[2]", "value": 2.09}, {"measurement": "Selectivity index (TGI)", "setting": "[2]", "value": 1.79}, {"measurement": "MG-MID (TGI)", "setting": "[2]", "value": 13.12, "unit": "µM"}, {"measurement": "GI50", "setting": "[3]", "value": 11.2, "unit": "µM"}, {"measurement": "Selectivity index (GI50)", "setting": "[3]", "value": 0.95}, {"measurement": "Selectivity index (TGI)", "setting": "[3]", "value": 0.92}, {"measurement": "MG-MID (TGI)", "setting": "[3]", "value": 25.67, "unit": "µM"}, {"measurement": "SI (COX-2 over COX-1)", "setting": "[4]", "value": 8.55}, {"measurement": "IC50", "setting": "[4]", "value": 1.28, "unit": "µM"}]}]}
